In patent US20190119282A1, “IMIDAZOPYRIDAZINES USEFUL AS INHIBITORS OF THE PAR-2 SIGNALING PATHWAY” (Vertex Pharmaceuticals Incorporated, priority 2013, published 2019):

Experiments:
[1] = molecular target: T1, PAR2 (HT-29 cells, SLIGKV activation) (Homo sapiens, UniProt P55085); experiment: Ca FLIPR TETRA assay, ANTAGONIST mode, stimulation with 8 μM SLIGKV; assay type: cell-based; settings: for IC50: HT-29 cells, stimulation with 8 μM SLIGKV
T1 construct: host or cells: HT-29 cells
T1 sequence (P55085 26-397): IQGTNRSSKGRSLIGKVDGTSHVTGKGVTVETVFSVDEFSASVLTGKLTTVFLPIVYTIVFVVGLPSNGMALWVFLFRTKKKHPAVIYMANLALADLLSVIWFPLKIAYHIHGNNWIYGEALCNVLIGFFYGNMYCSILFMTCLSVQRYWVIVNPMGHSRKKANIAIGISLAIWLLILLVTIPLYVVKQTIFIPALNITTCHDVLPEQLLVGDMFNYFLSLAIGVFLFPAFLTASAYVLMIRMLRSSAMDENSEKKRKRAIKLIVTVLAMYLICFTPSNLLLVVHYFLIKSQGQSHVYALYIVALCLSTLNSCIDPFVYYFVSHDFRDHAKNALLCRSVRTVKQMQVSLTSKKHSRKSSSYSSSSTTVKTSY
In short: (§1)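 Antagonist-mode assay: dye-loaded HT-29 cells, compound 30 min at r.t., then stimulated with final 8 μM SLIGKV, 3.1 U/mL trypsin, 1 U/mL thrombin or 0.6 μM UTP; calcium fluorescence read.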

[2] = molecular target: T2, PAR2 (HT-29 cells, trypsin activation) (Homo sapiens, UniProt P55085); experiment: Ca FLIPR TETRA assay, ANTAGONIST mode, stimulation with 3.1 U/mL trypsin; assay type: cell-based; settings: HT-29 cells, stimulation with 3.1 U/mL trypsin
T2 construct: host or cells: HT-29 cells
T2 sequence (P55085 26-397): T1 sequence (P55085 26-397)
In short: as §1

[3] = tested on: Thrombin-stimulated Ca2+ response in HT-29 cells; experiment: Ca FLIPR TETRA assay, ANTAGONIST mode, stimulation with 1 U/mL Thrombin; assay type: cell-based, human; settings: Homo sapiens, HT-29 cells, stimulation with 1 U/mL Thrombin
In short: as §1

[4] = tested on: UTP-stimulated Ca2+ response in HT-29 cells; experiment: Ca FLIPR TETRA assay, ANTAGONIST mode, stimulation with 0.6 μM UTP; assay type: cell-based, human; settings: Homo sapiens, HT-29 cells, stimulation with 0.6 μM UTP
In short: as §1

Structure (SMILES)	IC50 [1] [nM]	IC50 [2] [nM]	IC50 [3] [nM]	IC50 [4] [nM]	IC50 ([1]; antagonist mode) [nM]	IC50 ([2]; antagonist mode) [nM]	IC50 ([3]; antagonist mode) [nM]	IC50 ([4]; antagonist mode) [nM]	SLIGKV % @ concentration ([1]; @ 0.069 (μM)) [% @ 0.069]
CC1(C)CN(C(=O)C2(O)CCOCC2)CCN1C(=O)c1cn2nc(-c3ccc(F)cc3)cc(C(F)(F)F)c2n1 [Compound I-38, [6-(4-Fluorophenyl)-8-(trifluoromethyl)imidazo[1,2-b]pyridazin-2-yl]-[4-(4-hydroxytetrahydropyran-4-carbonyl)-2,2-dimethyl-piperazin-1-yl]methanone]	390	480	> 50000	> 45000	–	–	–	–	–
Cc1ncc(C(=O)N2CCN(C(=O)c3cn4nc(-c5ccc(Cl)cc5)cc(C(C)(C)C)c4n3)C(C)(C)C2)[nH]1 [Compound I-441]	–	–	–	–	0.5	0.6	> 1000	> 1000	–
C[C@H]1CN(C(=O)c2cn3nc(-c4ccc(F)cc4)cc(C(F)(F)F)c3n2)CCN1C(=O)Oc1ccccc1 [Compound I-83]	–	> 50000	> 50000	> 50000	–	–	–	–	46
CC(C)c1cc(-c2ccc(Cl)cc2)nn2cc(C(=O)N3CCN(C(=O)[C@H]4CC[C@H](C(=O)O)CC4)CC3(C)C)nc12 [Compound I-549]	–	–	–	–	27.5	57.5	> 1000	> 1000	–
Cc1n[nH]c(C(=O)N2CCN(C(=O)c3cn4nc(-c5ccc(F)c(C)c5)cc(C(C)C)c4n3)C(C)(C)C2)n1 [Compound I-345]	–	–	–	–	5.6	6.2	> 1000	> 1000	–
CCS(=O)(=O)N1CCN(C(=O)c2cn3nc(-c4ccc(F)cc4)cc(C(F)(F)F)c3n2)CC1 [Compound I-57]	590	48000	> 50000	> 50000	–	–	–	–	–
Cc1nc(C(=O)N2CCN(C(=O)c3cn4nc(-c5ccc(F)c(Cl)c5)cc(C(C)C)c4n3)C(C)(C)C2)n[nH]1 [Compound I-483]	–	–	–	–	2.5	4.3	6900	6800	–
C[C@@H]1C(=O)NCCN1C(=O)c1cn2nc(-c3ccc(F)cc3)cc(C(C)(C)C)c2n1 [Compound I-548]	–	–	–	–	545	> 1000	> 1000	> 1000	–
Cc1cc(C(=O)N2CCN(C(=O)c3cn4nc(-c5ccc(F)cc5)cc(C(C)(C)C)c4n3)C(C)(C)C2)no1 [Compound I-433]	–	–	–	–	0.7	1.1	> 1000	> 1000	–
CC(C)c1cc(-c2ccc(F)cc2)nn2cc(C(=O)N3CCN(C(=O)c4nc[nH]n4)CC3(C)C)nc12 [Compound I-237]	–	–	–	–	5.8	14.1	> 1000	> 1000	–
COC(=O)C1(C)CCC(C(=O)N2CCN(C(=O)c3cn4nc(-c5ccc(Cl)cc5)cc(C(C)(C)C)c4n3)C(C)(C)C2)CC1 (centres unmarked) [Compound I-532]	–	–	–	–	0.8	1.1	> 1000	> 1000	–
CC(C)C(O)C(=O)N1CCN(C(=O)c2cn3nc(-c4ccc(F)cc4)cc(C4CC4)c3n2)C(C)(C)C1 (centres unmarked) [Compound I-22, 1-[4-[8-cyclopropyl-6-(4-fluorophenyl)imidazo[1,2-b]pyridazine-2-carbonyl]-3,3-dimethyl-piperazin-1-yl]-2-hydroxy-3-methyl-butan-1-one]	7	14	21000	25000	–	–	–	–	–
C[C@@H]1CN(c2cc(-c3ccc(F)cc3)nn3cc(C(=O)N4CCN(C(=O)C(C)(C)O)CC4(C)C)nc23)C[C@H](C)O1 [Compound I-185]	–	–	–	–	117	157	> 5000	> 5000	–
CC(C)c1cc(-c2ccc(C(F)(F)F)cc2)nn2cc(C(=O)N3CCN(C(=O)c4ccn[nH]4)CC3(C)C)nc12 [Compound I-246]	–	–	–	–	1.7	2	> 1000	> 1000	–
CC(C)c1cc(-c2ccc(C(F)F)cc2)nn2cc(C(=O)N3CCN(C(=O)c4cn[nH]c4)CC3(C)C)nc12 [Compound I-295]	–	–	–	–	7.5	8.3	> 1000	> 1000	–
CC(=O)N1CCN(C(=O)c2cn3nc(-c4ccc(F)cc4)cc(C(C)(C)C)c3n2)C(C)(C)C1 [Compound I-513]	–	–	–	–	1.8	3	> 1000	> 1000	–

Structure (SMILES)	IC50 [1] [nM]	IC50 [2] [nM]	IC50 [3] [nM]	IC50 [4] [nM]	IC50 ([1]; antagonist mode) [nM]	IC50 ([2]; antagonist mode) [nM]	IC50 ([3]; antagonist mode) [nM]	IC50 ([4]; antagonist mode) [nM]	SLIGKV % @ concentration ([1]; @ 0.069 (μM)) [% @ 0.069]
CCCC(=O)N1CCN(C(=O)c2cn3nc(-c4ccc(F)cc4)cc(C(C)C)c3n2)C[C@@H]1C [Compound I-124]	26	160	15000	13000	–	–	–	–	–
COC(=O)[C@H]1CC[C@@H](C(=O)N2CCN(C(=O)c3cn4nc(C(C)C)cc(C(C)C)c4n3)C(C)(C)C2)CC1 [Compound I-550]	–	–	–	–	773	1050	> 30000	> 30000	–
CC(C)(C)c1cc(-c2ccc(F)cc2)nn2cc(C(=O)N3CCN(C(=O)[C@H]4CC[C@H](C(=O)O)CC4)CC3(C)C)nc12 [Compound I-494, (1R,4R)-4-(4-(8-(tert-butyl)-6-(4-fluorophenyl)imidazo[1,2-b]pyridazine-2-carbonyl)-3,3-dimethylpiperazine-1-carbonyl)cyclohexane-1-carboxylic acid]	–	–	–	–	12.4	13.9	> 1000	> 1000	–
CC(C)c1cc(-c2ccc(C(F)(F)F)cc2)nn2cc(C(=O)N3CCN(C(=O)c4ncccn4)CC3(C)C)nc12 [Compound I-370]	–	–	–	–	7.7	10.4	> 1000	> 1000	–
CC(O)C(=O)N1CCN(C(=O)c2cn3nc(-c4ccc(F)cc4)cc(C(C)C)c3n2)C(C)(C)C1 (centres unmarked) [Compound I-175]	23	60	41000	34000	–	–	–	–	–
CCNC(=O)OC1CCN(C(=O)c2cn3nc(-c4ccc(F)cc4)cc(C)c3n2)CC1 [Compound I-63]	1000	4100	35000	37000	–	–	–	–	–
CC(C)c1cc(-c2ccc(F)cc2)nn2cc(C(=O)N3CCN(C(=O)CC4CCCC4)[C@@H](C)C3)nc12 [Compound I-121]	4	7	9200	> 500	–	–	–	–	–
C[C@H]1CN(C(=O)c2cn3nc(-c4ccc(F)cc4)cc(C(F)(F)F)c3n2)CCN1C(=O)OCc1ccccn1 [Compound I-11, 2-Pyridylmethyl (2S)-4-[6-(4-fluorophenyl)-8-(trifluoromethyl)-imidazo-[1,2-b]pyridazine-2-carbonyl]-2-methyl-piperazine-1-carboxylate]	65	300	9600	> 5000	–	–	–	–	–
CC(C)c1cc(Cl)nn2cc(C(=O)N3CCN(C(=O)OC(C)(C)C)CC3(C)C)nc12 [Compound I-18, tert-Butyl 4-(6-chloro-8-isopropyl-imidazo[1,2-b]pyridazine-2-carbonyl)-3,3-dimethyl-piperazine-1-carboxylate]	2800	6800	20000	18000	–	–	–	–	–
CC(C)(C)c1cc(-c2ccc(F)c(Cl)c2)nn2cc(C(=O)N3CCN(C(=O)c4ncccn4)CC3(C)C)nc12 [Compound I-464]	–	–	–	–	1.2	2.2	> 1000	> 1000	–
COCCC(=O)N1CCN(C(=O)c2cn3nc(-c4ccc(F)cc4)cc(C(C)C)c3n2)C[C@@H]1C [Compound I-129]	120	500	41000	37000	–	–	–	–	–
CC(C)c1cc(-c2ccc(F)cc2)nn2cc(C(=O)N3CCN(C(=O)C4(O)CCC4)C[C@@H]3C)nc12 [Compound I-28, [6-(4-fluorophenyl)-8-isopropyl-imidazo[1,2-b]pyridazin-2-yl]-[(2S)-4-(1-hydroxycyclobutanecarbonyl)-2-methyl-piperazin-1-yl]methanone]	8800	15000	33000	38000	–	–	–	–	–
Cc1c[nH]c(C(=O)N2CCN(C(=O)c3cn4nc(-c5ccc(F)cc5)cc(C(C)(C)C)c4n3)C(C)(C)C2)n1 [Compound I-340]	–	–	–	–	1.5	1.6	> 1000	> 1000	–
CC(C)(C)c1cc(-c2ccc(F)cc2)nn2cc(C(=O)N3CCN(C(=O)c4ccccn4)CC3(C)C)nc12 [Compound I-284]	–	–	–	–	1	1.4	> 1000	> 1000	–
Cc1ncc(C(=O)N2CCN(C(=O)c3cn4nc(-c5ccc(F)cc5)cc(C(C)(C)C)c4n3)C(C)(C)C2)[nH]1 [Compound I-312]	–	–	–	–	1.3	1.3	> 1000	> 1000	–
CCCCC(O)C(=O)N1CCN(C(=O)c2cn3nc(-c4ccc(F)cc4)cc(C(C)C)c3n2)C[C@@H]1C (some centres unmarked) [Compound I-107]	1	4	10000	9600	–	–	–	–	–
